This passage reports EC50 results from ChEMBL document CHEMBL5727593, “Use of physiological cooling active ingredients, and agents containing such active ingredients” (2020).

Each structure is given as a SMILES string.

By EC50 is commonly meant the concentration that produces a half-maximal response.

The target in this test is Transient receptor potential cation channel subfamily M member 8 (Homo sapiens, UniProt Q7Z2W7). Put plainly: The agonisation or antagonisation of the receptor can be quantified by means of a Ca2+-sensitive dye (e.g. FURA, Fluo-4, etc.). Agonists on their own bring about an increase in the Ca2+-signal; antagonists in the presence of, for example, menthol bring about a reduction in the Ca2+-signal (in each case detected by means of the Fluo-4 dye, which due to the Ca2+ has other fluorescent properties).To begin with, in a manner known per se, in cell culture flasks a fresh culture of transformed HEK cells is prepared. The HEK293-TRPM8 test cells are removed using trypsin from the cell culture flasks and 40 000 cells/well are sown with 100 μl medium in 96-well plates (Greiner #655948 Poly-D-lysine coated). In order to induce the TRPM8 receptor the growth medium tetracycline is mixed in (DMEM/HG, 10% FCS tetracycline-free, 4 mM L-glutamine, 15 μg/ml blasticidin, 100 μg/ml hygromycin B, 1 μg/ml tetracycline). The next day the cells are charged with Fluo-4Am dye and the test is performed. The procedure is as follows: Addition of 100 μl/well of dye solution Ca-4 Kit (RB 141, Molecular Devices) per 100 μl of medium (DMEM/HG, 10% FCS tetracycline-free, 4 mM L-glutamine, 15 μg/ml blasticidin, 100 μg/ml hygromycin B, 1 μg/ml tetracycline). Incubation in the incubator for 30 minutes/37° C./5% CO2, 30 minutes/RT. […].
Sequence of Transient receptor potential cation channel subfamily M member 8 (Q7Z2W7 whole entry): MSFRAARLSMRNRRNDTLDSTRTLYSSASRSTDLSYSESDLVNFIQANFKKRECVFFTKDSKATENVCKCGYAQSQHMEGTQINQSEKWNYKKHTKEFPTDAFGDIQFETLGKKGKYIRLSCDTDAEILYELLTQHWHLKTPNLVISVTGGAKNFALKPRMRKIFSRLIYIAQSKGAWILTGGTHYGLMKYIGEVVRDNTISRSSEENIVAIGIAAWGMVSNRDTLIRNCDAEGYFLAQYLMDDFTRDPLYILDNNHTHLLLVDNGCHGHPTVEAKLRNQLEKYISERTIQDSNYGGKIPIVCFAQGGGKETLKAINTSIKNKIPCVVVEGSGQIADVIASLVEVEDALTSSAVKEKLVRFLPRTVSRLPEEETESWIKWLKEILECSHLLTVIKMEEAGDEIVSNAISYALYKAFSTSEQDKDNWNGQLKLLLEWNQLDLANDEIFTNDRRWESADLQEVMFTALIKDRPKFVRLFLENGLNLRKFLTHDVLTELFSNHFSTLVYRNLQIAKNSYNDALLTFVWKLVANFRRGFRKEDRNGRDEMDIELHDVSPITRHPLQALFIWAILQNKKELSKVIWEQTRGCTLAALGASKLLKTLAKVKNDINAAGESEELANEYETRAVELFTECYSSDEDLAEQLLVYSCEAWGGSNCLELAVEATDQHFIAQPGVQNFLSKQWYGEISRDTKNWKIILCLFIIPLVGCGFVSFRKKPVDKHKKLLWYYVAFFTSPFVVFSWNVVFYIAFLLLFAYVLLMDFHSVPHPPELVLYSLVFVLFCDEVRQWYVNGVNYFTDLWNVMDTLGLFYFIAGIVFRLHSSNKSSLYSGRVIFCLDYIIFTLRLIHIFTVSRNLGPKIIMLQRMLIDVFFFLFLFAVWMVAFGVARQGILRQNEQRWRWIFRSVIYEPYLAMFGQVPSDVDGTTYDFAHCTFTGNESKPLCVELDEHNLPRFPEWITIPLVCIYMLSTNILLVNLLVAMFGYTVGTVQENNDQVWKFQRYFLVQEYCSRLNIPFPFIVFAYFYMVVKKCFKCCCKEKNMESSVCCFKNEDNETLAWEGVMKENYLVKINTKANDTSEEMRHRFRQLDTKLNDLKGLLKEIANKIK

Regarding `COc1cnc(-c2ccccn2)nc1NC(C)C(C)C` (configuration not stated), the EC50 was found to be 500 nM.

On to `COc1cnc(-c2ccccn2)nc1OC(C)C`, for which the EC50 amounted to 3200 nM.
